Assay results published in publication PMC6264673, “Synthesis and SAR Study of Novel Peptide Aldehydes as Inhibitors of 20S Proteasome” (Molecules, 2011).
Non-standard residues stand in square brackets, D forms with d. Residues, ends and D or L forms follow the SMILES beside them. *: point of attachment. Arg(NO2) = N=C(NCCC[C@H](N)C(=O)O)N[N+](=O)[O-]; 2Nal = N[C@@H](Cc1ccc2ccccc2c1)C(=O)O; Tos = Cc1ccc(S(=O)(=O)*)cc1; Cbz = O=C(OCc1ccccc1)*; Boc = CC(C)(C)OC(=O)*; OBn = c1ccc(CO*)cc1; Bn = c1ccc(C*)cc1; OtBu = CC(C)(C)O*

Molecular target: T1, ChT-L activity of 20S proteasome (Mus musculus, UniProt O09061+O55234)
T1 construct: 20S proteasome purified from mouse liver; from tissue; host or cells: mouse liver
Assay: Assay for ChT-L activity of 20S proteasome with fluorogenic peptide Suc-Leu-Leu-Val-Tyr-AMC
Assay type: biochemical
Conditions: for IC50: 20S proteasome purified from mouse liver (1 μg), 50 μM Suc-Leu-Leu-Val-Tyr-AMC, 20 mM Tris-HCl pH 7.8, 37 °C, 1 h; for fold higher ChT-L inhibitory activity than the other Cbz series compounds: comparison within the Cbz series; for ChT-L inhibitory activity compared with the control MG132: result in words, versus positive control MG132
Procedure: Inhibitory activities of peptide aldehydes on the 20S proteasome are assayed in vitro [41]. MG132 was used as the positive control (Table 1).
Assays for proteasome activities. The enzymatic activities of the proteasome were assayed using fluorogenic peptides: Suc-Leu-Leu-Val-Tyr-AMC (Suc represents succinyl and AMC represents […], obtained from Sigma) for ChT-L activity. 20S proteasome purified from mouse liver (1 μg) was incubated with various concentrations of compounds and 50 μM fluorogenic peptides in 20 mM Tris-HCl pH 7.8 (100 μL) at 37 °C for 1 h, respectively. The fluorescence of released AMC was measured by a spectrofluorimeter (Fluostar OPTIMA, BMG Germany) at excitation/emission wavelengths of 380/440 nm and 335/410 nm, respectively. 0.1% DMSO was used as solvent control. Compared with the fluorescence of solvent control, an inhibition rate was calculated and thereafter the IC50 value was deduced.

Compound | IC50 [nM] | fold higher ChT-L inhibitory activity than the other Cbz series compounds | ChT-L inhibitory activity compared with the control MG132
CC(C)CC(C=O)NC(=O)C(Cc1ccccc1)NC(=O)C(CC(=O)OC(C)(C)C)NC(=O)OCc1ccccc1 [Compound 3a, Cbz-L-Asp(OtBu)-L-Phe-L-Leucinal] (Cbz-Asp(OtBu)-Phe-Leu-aldehyde; configuration not given here) | 210 ± 14 |  | 
CC(C)CC(C=O)NC(=O)C(CC(C)C)NC(=O)C(CC(=O)OC(C)(C)C)NC(=O)OCc1ccccc1 [Compound 3b, Cbz-L-Asp(OtBu)-L-Leu-L-Leucinal] (Cbz-Asp(OtBu)-Leu-Leu-aldehyde; configuration not given here) | 200 ± 35 |  | 
CC(C)C[C@@H](C=O)NC(=O)[C@H](Cc1ccccc1)NC(=O)[C@H](CCC(=O)OC(C)(C)C)NC(=O)OCc1ccccc1 [Compound 3c, Cbz-L-Glu(OtBu)-L-Phe-L-Leucinal] (Cbz-Glu(OtBu)-Phe-Leu-aldehyde) | 28 ± 6 | about 10 fold | much higher activities than the control MG132
CC(C)C[C@@H](C=O)NC(=O)[C@H](CC(C)C)NC(=O)[C@H](CCC(=O)OC(C)(C)C)NC(=O)OCc1ccccc1 [Compound 3d, Cbz-L-Glu(OtBu)-L-leu-L-Leucinal] (Cbz-Glu(OtBu)-Leu-Leu-aldehyde) | 89 ± 20 | about 10 fold | much higher activities than the control MG132
CC(C)C[C@@H](C=O)NC(=O)[C@H](CC(C)C)NC(=O)[C@H](CCCNC(N)=N[N+](=O)[O-])NC(=O)OCc1ccccc1 [Compound 3f, Cbz-L-Arg(NO2)-L-leu-L-Leucinal] (Cbz-[Arg(NO2)]-Leu-Leu-aldehyde) | > 50000 |  | 
Cc1ccc(S(=O)(=O)NC(=N)NCCCC(NC(=O)OCc2ccccc2)C(=O)NC(CC(C)C)C(=O)NC(C=O)CC(C)C)cc1 [Compound 3g, Cbz-L-Arg(Tos)-L-leu-L-Leucinal] (Cbz-Arg(Tos)-Leu-Leu-aldehyde; configuration not given here) | > 50000 |  | 
CC(C)C[C@@H](C=O)NC(=O)[C@H](CC(C)C)NC(=O)[C@H](Cc1ccc2ccccc2c1)NC(=O)OCc1ccccc1 [Compound 3h, Cbz-L-(2-Naphthyl)alanine-L-Leu-L-Leucinal] (Cbz-[2Nal]-Leu-Leu-aldehyde) | 410 ± 82 |  | 
CC(C)C[C@@H](C=O)NC(=O)[C@H](Cc1ccccc1)NC(=O)[C@H](CC(=O)OCc1ccccc1)NC(=O)OC(C)(C)C [Compound 3i, Boc-L-Asp(OBzl)-L-Phe-L-Leucinal] (Boc-Asp(OBn)-Phe-Leu-aldehyde) | 4830 ± 2300 |  | 
CC(C)CC(C=O)NC(=O)C(CC(C)C)NC(=O)C(CC(=O)OCc1ccccc1)NC(=O)OC(C)(C)C [Compound 3j, Boc-L-Asp(OBzl)-L-Leu-L-Leucinal] (Boc-Asp(OBn)-Leu-Leu-aldehyde; configuration not given here) | 20300 ± 2050 |  | 
CC(C)C[C@@H](C=O)NC(=O)[C@H](Cc1ccccc1)NC(=O)[C@H](CCC(=O)OCc1ccccc1)NC(=O)OC(C)(C)C [Compound 3k, Boc-L-Glu(OBzl)-L-Phe-L-Leucinal] (Boc-Glu(OBn)-Phe-Leu-aldehyde) | 7140 ± 1930 |  | 
CC(C)C[C@@H](C=O)NC(=O)[C@H](CC(C)C)NC(=O)[C@H](CCC(=O)OCc1ccccc1)NC(=O)OC(C)(C)C [Compound 3l, Boc-L-Glu(OBzl)-L-Leu-L-Leucinal] (Boc-Glu(OBn)-Leu-Leu-aldehyde) | > 50000 |  | 
CC(C)CC(C=O)NC(=O)C(Cc1ccccc1)NC(=O)C1CCCN1C(=O)OC(C)(C)C [Compound 3m, Boc-L-Pro-L-Phe-L-Leucinal] (Boc-Pro-Phe-Leu-aldehyde; configuration not given here) | > 50000 |  | 
CC(C)CC(C=O)NC(=O)C(CC(C)C)NC(=O)C1CCCN1C(=O)OC(C)(C)C [Compound 3n, Boc-L-Pro-L-Leu-L-Leucinal] (Boc-Pro-Leu-Leu-aldehyde; configuration not given here) | > 50000 |  | 
CC(C)CC(C=O)NC(=O)C(CC(C)C)NC(=O)C(COCc1ccccc1)NC(=O)OC(C)(C)C [Compound 3o, Boc-L-Ser(OBn)-L-Leu-L-Leucinal] (Boc-Ser(Bn)-Leu-Leu-aldehyde; configuration not given here) | 50 ± 2 |  | much higher activities than the control MG132
CC(C)CC(C=O)NC(=O)C(CC(C)C)NC(=O)C(NC(=O)OC(C)(C)C)C(C)OCc1ccccc1 [Compound 3p, Boc-L-Thr(OBn)-L-Leu-L-Leucinal] (Boc-Thr(Bn)-Leu-Leu-aldehyde; configuration not given here) | 290 ± 21 |  | 
CC(C)CC(C=O)NC(=O)C(CC(C)C)NC(=O)C(Cc1ccc(OCc2ccccc2)cc1)NC(=O)OC(C)(C)C [Compound 3q, Boc-L-Tyr(OBn)-L-Leu-L-Leucinal] (Boc-Tyr(Bn)-Leu-Leu-aldehyde; configuration not given here) | > 50000 |  | 
CC(C)C[C@@H](C=O)NC(=O)[C@H](CC(C)C)NC(=O)[C@H](CC(C)C)NC(=O)OCc1ccccc1 [MG132, Cbz-L-Leu-L-Leu-L-Leucinal, reference compound] (Cbz-Leu-Leu-Leu-aldehyde) | 280 ± 60 |  | 
Cbz-L-Phe-L-leu-L-Leucinal [Compound 3e] | 850 ± 47 |  | 
